Assay results taken from patent US10112941B2, “Tricyclic compounds as anticancer agents” (BRISTOL-MYERS SQUIBB COMPANY, priority 2013, dated 2018).

What was measured:
BRD4 = BRD4 (Homo sapiens, UniProt O60885); assay: Time Resolved Fluorescence Resonance Energy Transfer (TR-FRET) binding assay, BRD4; conditions: one of the FRET assays described; read-out: FRET BRD4 IC50
[1] = tested on: H187 Human Small Cell Carcinoma; assay: Human tumor xenograft model in mice, H187; assay type: in vivo; conditions: QD × 7
Source text: (§1) All rodents were obtained from Jackson Laboratory. (Bar Harbor, Me.), and maintained in an ammonia-free environment in a defined and pathogen-free colony. All mice were quarantined approximately 1 week prior to their use for tumor propagation and drug efficacy testing. Mice were fed food and water ad libitum. The animal care program of Bristol-Myers Squibb Pharmaceutical Research Institute is fully accredited by the American Association for Accreditation of Laboratory Animal Care (AAALAC). All experiments were performed in accordance with Bristol-Myers Squibb (BMS) animal test methods and guidelines.
(§2) Tumor xenografts were grown and maintained subcutaneously (SC) in NSG (NOD scid IL2 receptor gamma chain knockout) mice (Jackson Lab). Tumors were propagated as subcutaneous transplants using tumor fragments obtained from donor mice.
(§3) The required numbers of animals needed to detect a meaningful response were pooled at the start of the experiment and each was given bilateral subcutaneous implants of two tumor fragments (˜20 mg) with a 13-gauge trocar. Tumors were allowed to grow to the pre-determined size window (tumors outside the range were excluded) and animals were evenly distributed to various treatment and control groups. There were typically 6-8 mice per treatment and control groups, consisting of 10-12 tumors. Treatment of each animal was based on individual body weight. Treated animals were checked daily for treatment related toxicity/mortality. Each group of animals was weighed before the initiation of treatment (Wt1) and then again following the last treatment dose (Wt2). The difference in body weight (Wt2−Wt1) provides a measure of treatment-related toxicity.
(§4) Tumor response was determined by measurement of tumors with a caliper twice a week, until the tumors reached a predetermined “target” size of 0.5 gm or 1 gm depending on the tumor type. Tumor weights (mg) were estimated from the formula: Tumor weight=(length×width^2)÷2
(§5) Tumor response criteria are expressed in terms of tumor growth inhibition (% TGI). Tumor growth delay is defined as the difference in time (days) required for the treated tumors (T) to reach a predetermined target size compared to those of the control group (C). For this purpose, the tumor weight of a group is expressed as medium tumor weight (MTW).
(§6) [formula] where, • Ct=Median control tumor size at end of treatment • C0=Median control tumor size at treatment initiation • Tt=Median tumor size of treated group at end of treatment • T0=Median tumor size of treated group at treatment initiation
(§7) Tumor response was also expressed in terms of tumor growth delay and expressed as log cell kill (LCK value), defined as the difference in time (days) required for the treated tumors (T) to reach a predetermined target size compared to those of the control group (C).
(§8) Whenever possible, antitumor activity was determined at a range of dose levels up to the maximum tolerated dose (MTD) which is defined as the dose level immediately […] which excessive toxicity (i.e. more than one death) occurred. When death occurred, the day of death was recorded. Treated mice dying prior to having their tumors reach target size were considered to have died from drug toxicity. No control mice died bearing tumors less than target size. Treatment groups with more than one death caused by drug toxicity were considered to have had excessively toxic treatments and their data were not included in the evaluation of a compound's antitumor efficacy.
(§9) For administration of BET inhibitors to rodents, compounds were dissolved in […]/10% TPGS/10% Ethanol. BET inhibitors were typically administered orally on a schedule of QD×7 or QD×10 (5 day-on-2 day-off), although other schedules had also been evaluated and shown to be efficacious

[2] = tested on: JJN3R multiple myeloma cell line; assay: Human tumor xenograft model in mice, JJN3R; assay type: in vivo; conditions: QD × 7
Source text: as §1, §2, §3, §4, §5, §6, §7, §8, §9

Cc1nnn(C)c1-c1cnc2c3ccc(C(C)(C)O)c(F)c3n(C(c3ccccc3)C3CCOCC3)c2c1 (single isomer, unassigned) [Example 70, 2-[3-(dimethyl-1H-1,2,3-triazol-5-yl)-6-fluoro-5-[oxan-4-yl(phenyl)methyl]-5H-pyrido[3,2-b]indol-7-yl]propan-2-ol]
IC50 (BRD4): < 5 nM
% TGI ([1]; H187, 1 mg/kg): 82.0%
LCK ([1]; H187, 1 mg/kg): 0.7
% TGI ([1]; H187, 3 mg/kg): 90.0%
LCK ([1]; H187, 3 mg/kg): 1.0
% TGI ([1]; H187, 10 mg/kg): 96.0%
LCK ([1]; H187, 10 mg/kg): 1.6

[2H]C([2H])([2H])c1nnn(C)c1-c1cnc2c3cc(F)c(C(C)(C)O)cc3n([C@H](c3ccccc3F)C3CCOCC3)c2c1 [Example 276, 2-{8-Fluoro-5-[(S)-(2-fluorophenyl)(oxan-4-yl)methyl]-3-[4-(^2H3)methyl-1-methyl-1H-1,2,3-triazol-5-yl]-5H-pyrido[3,2-b]indol-7-yl}propan-2-ol]
IC50 (BRD4): < 5 nM
LCK ([2]; 1 mg/kg): 0.3
LCK ([2]; 4 mg/kg): 1
